# Literature values in publication PMC9825171 (Nucleic Acids Research, 2022).
# Tested on: interactions of both NICD and SHARP with RBPJ
# Details: cellular assays; ref [63]
structure (smiles),measurement,value
Cn1nccc1-c1ccc(C(N)=O)c(Oc2ccccc2F)c1 [RIN1],"effect on RBPJ-coregulator interactions, in words",block the interactions of both NICD and SHARP with RBPJ
